Reference: patent US20150031572A1, “MEANS AND METHODS FOR ASSESSING NEURONAL TOXICITY” (priority 2012, published 2015)
Where a name gives a salt, the structure may show the parent alone. Marks after values point to notes of the source that are not given here.

Assay: Plasma metabolite profiling (GC-MS, LC-MS, SPE-LC-MS) of rats dosed once daily over 28 days; treatment ratios versus untreated control
Format: in vivo, rat
Experimental: A group of each 5 male and female rats was dosed once daily with the indicated compounds (see Table 10, below for compounds, applied doses and administration details) over 28 days.
Each dose group in the studies consisted of five rats per sex. Additional groups of each 5 male and female animals served as controls. Before starting the treatment period, animals, which were 62-64 days old when supplied, were acclimatized to the housing and environmental conditions for 7 days. All animals of the animal population were kept under the same constant temperature (20-24±3° C.) and the same constant humidity (30-70%). The animals of the animal population were fed ad libitum. The food to be used was essentially free of chemical or microbial contaminants. Drinking water was also offered ad libitum. Accordingly, the water was free of chemical and microbial contaminants as laid down in the European Drinking Water Directive 98/83/EG. The illumination period was 12 hours light followed by 12 hours darkness (12 hours light, from 6:00 to 18:00, and 12 hours darkness, from 18:00 to 6:00). […] The test substances (compounds) in the Tables 1 to 9 below were dosed and administered as described in the Table 10 above.
In the morning of day 7, 14, and 28, blood was taken from the retro-orbital venous plexus from fasted anaesthetized animals. From each animal, 1 ml of blood was collected with EDTA as anticoagulant. The samples were centrifuged for generation of plasma. All plasma samples were covered with a N2 atmosphere and then stored at −80° C. until analysis.
For mass spectrometry-based metabolite profiling analyses plasma samples were extracted and a polar and a non-polar (lipid) fraction was obtained. For GC-MS analysis, the non-polar fraction was treated with methanol under acidic conditions to yield the fatty acid methyl esters. Both fractions were further derivatised with O-methyl-hydroxyamine hydrochloride and pyridine to convert Oxogroups to O-methyloximes and subsequently with a silylating agent before analysis. In LC-MS analysis, both fractions were reconstituted in appropriate solvent mixtures. HPLC was performed by gradient elution on reversed phase separation columns. Mass spectrometric detection which allows target and high sensitivity MRM (Multiple Reaction Monitoring) profiling in parallel to a full screen analysis was applied as described in WO2003073464.
Steroids and their metabolites were measured by online SPE-LC-MS (Solid phase extraction-LC-MS).
Following comprehensive analytical validation steps, the data for each analyte were normalized against data from pool samples. These samples were run in parallel through the whole process to account for process variability. The significance of treatment group values specific for sex, treatment duration and metabolite was determined by comparing means of the treated groups to the means of the respective untreated control groups using WELCH-test and quantified with treatment ratios versus control and p-values.
The identification of the most important biomarkers per toxicity pattern was done by a ranking of the analytes in the tables below. Therefore the metabolic changes in reference treatments of a given pattern (shown in the table) were compared with changes of the same metabolite in other unrelated treatments. […] The maximum absolute value of the respective TVALUE was taken to indicate the most important metabolite for the pattern.

[1] = plasma, male rats, day 7, high dose, Table 8a
[2] = plasma, male rats, day 7, high dose, Table 8b
[3] = plasma, male rats, day 14, high dose, Table 8a
[4] = plasma, male rats, day 14, high dose, Table 8b
[5] = plasma, male rats, day 28, high dose, Table 8a
[6] = plasma, male rats, day 28, high dose, Table 8b
[7] = plasma, female rats, day 7, high dose, Table 9a
[8] = plasma, female rats, day 7, high dose, Table 9b
[9] = plasma, female rats, day 14, high dose, Table 9a
[10] = plasma, female rats, day 14, high dose, Table 9b
[11] = plasma, female rats, day 28, high dose, Table 9a
[12] = plasma, female rats, day 28, high dose, Table 9b
[13] = plasma, male rats, day 7, high dose, Table 9c
[14] = plasma, male rats, day 7, high dose, Table 9d
[15] = plasma, male rats, day 14, high dose, Table 9c
[16] = plasma, male rats, day 14, high dose, Table 9d
[17] = plasma, male rats, day 28, high dose, Table 9c
[18] = plasma, male rats, day 28, high dose, Table 9d
[19] = plasma, female rats, day 7, high dose, Table 7b
[20] = plasma, female rats, day 14, high dose, Table 7a
[21] = plasma, female rats, day 14, high dose, Table 7b
[22] = plasma, female rats, day 28, high dose, Table 7a
[23] = plasma, female rats, day 28, high dose, Table 7b

Compound: CNCCC(Oc1ccc(C(F)(F)F)cc1)c1ccccc1 (stereo not drawn) [Fluoxetine hydrochloride]
- Ceramide (d18:1,C24:1), ratio versus control [1]: 1.77
- threo-Sphingosine, ratio versus control [1]: 1.2
- DAG (C18:1,C18:2), ratio versus control [2]: 0.65*
- Serotonin (5-HT), ratio versus control [2]: 0.33*
- 4-Hydroxysphinganine (t18:0, Phytosphingosine), total, ratio versus control [3]: 1.51*
- Ceramide (d18:1,C24:1), ratio versus control [3]: 1.91*
- DAG (C18:1,C18:2), ratio versus control [4]: 0.64*
- Serotonin (5-HT), ratio versus control [4]: 0.07*
- 4-Hydroxysphinganine (t18:0, Phytosphingosine), total, ratio versus control [5]: 2.57*
- Ceramide (d18:1,C24:1), ratio versus control [5]: 1.85*
- threo-Sphingosine, ratio versus control [5]: 2.2*
- DAG (C18:1,C18:2), ratio versus control [6]: 0.63*
- Serotonin (5-HT), ratio versus control [6]: 0.28*
- 4-Hydroxysphinganine (t18:0, Phytosphingosine), total, ratio versus control (rat, in vivo): 1.34*
- threo-Sphingosine, ratio versus control (rat, in vivo): 1.45*

Compound: O=C1CCCC(=O)C1C(=O)c1ccc(C(F)(F)F)cc1[N+](=O)[O-] [NTBC (HPPD-Inhibitor), NTBC]
- 4-Hydroxyphenylpyruvate, ratio versus control [7]: 245.75*
- Glycine, ratio versus control [7]: 1.2*
- Phosphatidylcholine (C18:0,C18:2), ratio versus control [7]: 1.03*
- Serine, ratio versus control [7]: 1.38*
- TAG (C16:0,C18:2), ratio versus control [7]: 1.62*
- TAG (C18:1,C18:2), ratio versus control [7]: 2.45*
- TAG (C18:2,C18:2), ratio versus control [7]: 1.91*
- Threonine, ratio versus control [7]: 1.43*
- Tyrosine, ratio versus control [7]: 37.75*
- gamma-Linolenic acid (C18:cis[6,9,12]3), ratio versus control [7]: 1.34
- 5-Oxoproline, ratio versus control [8]: 0.5*
- Glutamine, ratio versus control [8]: 0.54*
- 4-Hydroxyphenylpyruvate, ratio versus control [9]: 293.51*
- Glycine, ratio versus control [9]: 1.33*
- Phosphatidylcholine (C18:0,C18:2), ratio versus control [9]: 1
- Serine, ratio versus control [9]: 1.48*
- TAG (C16:0,C18:2), ratio versus control [9]: 1.37*
- TAG (C18:1,C18:2), ratio versus control [9]: 2.22*
- TAG (C18:2,C18:2), ratio versus control [9]: 1.92*
- Threonine, ratio versus control [9]: 1.82*
- Tyrosine, ratio versus control [9]: 50.64*
- gamma-Linolenic acid (C18:cis[6,9,12]3), ratio versus control [9]: 1.61*
- 5-Oxoproline, ratio versus control [10]: 0.55*
- Glutamine, ratio versus control [10]: 0.46*
- 4-Hydroxyphenylpyruvate, ratio versus control [11]: 276.92*
- Glycine, ratio versus control [11]: 1.48*
- Phosphatidylcholine (C18:0,C18:2), ratio versus control [11]: 1.05*
- Serine, ratio versus control [11]: 1.43*
- TAG (C16:0,C18:2), ratio versus control [11]: 1.44*
- TAG (C18:1,C18:2), ratio versus control [11]: 1.51*
- TAG (C18:2,C18:2), ratio versus control [11]: 1.31*
- Threonine, ratio versus control [11]: 1.52*
- Tyrosine, ratio versus control [11]: 38.31*
- gamma-Linolenic acid (C18:cis[6,9,12]3), ratio versus control [11]: 1.55*
- 5-Oxoproline, ratio versus control [12]: 0.69*
- Glutamine, ratio versus control [12]: 0.48*
- 4-Hydroxyphenylpyruvate, ratio versus control [13]: 364.14*
- Lysine, ratio versus control [13]: 1.12
- Threonine, ratio versus control [13]: 1.36*
- Tyrosine, ratio versus control [13]: 56.14*
- 5-Oxoproline, ratio versus control [14]: 0.6*
- Citrulline, ratio versus control [14]: 0.84*
- Glutamine, ratio versus control [14]: 0.55*
- Phenylalanine, ratio versus control [14]: 0.78*
- 4-Hydroxyphenylpyruvate, ratio versus control [15]: 435.77*
- Lysine, ratio versus control [15]: 1.4*
- Threonine, ratio versus control [15]: 1.51*
- Tyrosine, ratio versus control [15]: 58.08*
- 5-Oxoproline, ratio versus control [16]: 0.61*
- Citrulline, ratio versus control [16]: 0.88*
- Glutamine, ratio versus control [16]: 0.57*
- Phenylalanine, ratio versus control [16]: 0.77*
- 4-Hydroxyphenylpyruvate, ratio versus control [17]: 366.39*
- Lysine, ratio versus control [17]: 1.46*
- Threonine, ratio versus control [17]: 1.54*
- Tyrosine, ratio versus control [17]: 52.56*
- 5-Oxoproline, ratio versus control [18]: 0.6*
- Citrulline, ratio versus control [18]: 0.83*
- Glutamine, ratio versus control [18]: 0.58*
- Phenylalanine, ratio versus control [18]: 1.02

Compound: Fc1ccc([C@@H]2CCNC[C@H]2COc2ccc3c(c2)OCO3)cc1 [Paroxetine hydrochloride]
- alpha-Tocopherol, ratio versus control (plasma, female rats, day 7, high dose, Table 7a): 1.08
- Adrenaline (Epi-nephrine), ratio versus control [19]: 0.19*
- Glutamate, ratio versus control [19]: 0.7*
- Serotonin (5-HT), ratio versus control [19]: 0.09*
- 4-Hydroxysphinganine (t18:0, Phytosphingosine), total, ratio versus control [20]: 1.9*
- Threonine, ratio versus control [20]: 1.65*
- alpha-Tocopherol, ratio versus control [20]: 1.31*
- Adrenaline (Epi-nephrine), ratio versus control [21]: 0.36*
- Glutamate, ratio versus control [21]: 0.68*
- Serotonin (5-HT), ratio versus control [21]: 0.07*
- 4-Hydroxysphinganine (t18:0, Phytosphingosine), total, ratio versus control [22]: 2.11*
- Threonine, ratio versus control [22]: 1.4*
- Adrenaline (Epi-nephrine), ratio versus control [23]: 0.89
- Glutamate, ratio versus control [23]: 0.85
- Serotonin (5-HT), ratio versus control [23]: 0.04*
- 4-Hydroxysphinganine (t18:0, Phytosphingosine), total, ratio versus control (rat, in vivo): 1.99*
- Threonine, ratio versus control (rat, in vivo): 1.41*
- alpha-Tocopherol, ratio versus control (rat, in vivo): 1.32*

Compound: CCCC(C)C1(CC)C(=O)NC(=O)NC1=O (stereo not drawn) [Pentobarbital sodium i.p., Pentobarbital sodium]
- 3-Indoxylsulfate, ratio versus control (rat, in vivo): 1.44 *
- Cysteine, ratio versus control (rat, in vivo): 0.64 *
- Ketoleucine, ratio versus control (rat, in vivo): 1.09
- Malate, ratio versus control (rat, in vivo): 0.83 *
- Pantothenic acid, ratio versus control (rat, in vivo): 1.14^
- Phosphate (inorganic and organic phosphates), ratio versus control (rat, in vivo): 1.21 *
- Phosphatidylcholine (C16:0, C20:4), ratio versus control (rat, in vivo): 1 *
- Phosphatidylcholine (C16:0, C22_6), ratio versus control (rat, in vivo): 0.94 *
- alpha-Tocopherol, ratio versus control (rat, in vivo): 1.23 *
